According to article PMC4363471, “Crystal Structure of Helicobacter pylori Pseudaminic Acid Biosynthesis N-Acetyltransferase PseH: Implications for Substrate Specificity and Catalysis” (PLoS ONE, 2015):

Target: T1, PseH (Helicobacter pylori, UniProt O25094)
T1 construct: recombinant; 21 kDa; homodimer
Assay: X-ray crystal structure ([…] Å, co-crystallization)
Format: binding
Conditions: co-crystallized with 5 mM AcCoA; cofactor site between strands β4 and β5

T1 sequence (O25094 whole entry): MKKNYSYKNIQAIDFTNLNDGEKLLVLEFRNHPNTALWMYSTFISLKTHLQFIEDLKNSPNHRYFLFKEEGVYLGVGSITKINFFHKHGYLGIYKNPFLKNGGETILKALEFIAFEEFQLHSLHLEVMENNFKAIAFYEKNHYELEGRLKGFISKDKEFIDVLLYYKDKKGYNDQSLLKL

## CC(=O)SCCNC(=O)CCNC(=O)[C@H](O)C(C)(C)COP(=O)(O)OP(=O)(O)OC[C@H]1O[C@@H](n2cnc3c(N)ncnc32)[C@H](O)[C@@H]1OP(=O)(O)O [AcCoA]
  X-ray crystal structure (2.3 Å, co-crystallization): Analysis of the difference Fourier map revealed an AcCoA binding site between the splayed strands
